Measured values from ChEMBL document CHEMBL3507680, “University of Dundee, Gates Library screen for HepG2 cell viability”.

Assay: Human HepG2 cell viability assay in 384 well format
Format: toxicity, cell-based
Design: dose 125 nL, time 70.5 hour; cytotoxicity at 70.5 h: concentration not given beside the values
Conditions: HepG2 cells, read-out: Inhibition

Cc1noc(C)c1CN1CCCC2(C1)CN(c1nncs1)CCO2 (configuration not stated)
cytotoxicity at 70.5 h: -7.2%

CC(=O)N1CC(=O)N(c2cnn(C)c2)CC12CCN(Cc1nccs1)C2 (configuration not stated)
cytotoxicity at 70.5 h: -7.04%

N#Cc1cccc(CN2CCn3cc(CNC(=O)C4CCC4)nc3C2)c1
cytotoxicity at 70.5 h: -6.27%

Cn1cccc1C(=O)N[C@@H]1CN(S(C)(=O)=O)[C@@H]2COC[C@@H]21
cytotoxicity at 70.5 h: -8.37%

CN(C)C(=O)N1CCc2c(nnn2C)C1COCC1CC1 (configuration not stated)
cytotoxicity at 70.5 h: -2.28%

COCc1ncn2c1CN(S(=O)(=O)c1cccs1)CCC2
cytotoxicity at 70.5 h: 10.6%

CCOCc1ncn2c1CN(S(=O)(=O)c1cccs1)CCC2
cytotoxicity at 70.5 h: 12.5%

O=C(CC1CC1)N[C@@H]1CN(Cc2ccoc2)C[C@@H]2CCCO[C@@H]21
cytotoxicity at 70.5 h: 14%

CS(=O)(=O)NC[C@H]1OC[C@@H]2CCN(C(=O)c3cccnc3)C[C@@H]21
cytotoxicity at 70.5 h: -0.643%

CCOCc1ncn2c1CN(S(=O)(=O)c1cccs1)CC2
cytotoxicity at 70.5 h: -0.803%

O=C(CC1CC1)N[C@@H]1CN(Cc2nccs2)C[C@@H]2CCCO[C@@H]21
cytotoxicity at 70.5 h: -2.11%

O=C(NCc1ccco1)[C@@]12CCO[C@@H]1CCN(Cc1nccs1)C2
cytotoxicity at 70.5 h: 1.38%

COc1ccc(CN2C[C@@H]3CCCO[C@@H]3[C@H](NC(=O)CC3CC3)C2)cc1
cytotoxicity at 70.5 h: 3.18%

O=S(=O)(c1ccc(F)cc1)N1CCCn2cnc(CN3CCCC3)c2C1
cytotoxicity at 70.5 h: 3.23%

CCN1C(=O)C2(CCOCC2)c2cc(NC(=O)c3cccn3C)ccc21
cytotoxicity at 70.5 h: -0.784%

Cc1nnn2c1COCC(CNC(=O)c1ccnnc1)C2 (configuration not stated)
cytotoxicity at 70.5 h: -0.292%

COc1cc(N2C[C@H]3OCC[C@H]3[C@H](C(=O)NC3CC3)C2)ncn1
cytotoxicity at 70.5 h: -4.39%

Cc1ccc(N2CCCc3sc(C(=O)NCc4cccnc4)nc32)nn1
cytotoxicity at 70.5 h: -10.4%

CN(C)c1nccc(N2CCO[C@H]3CN(CC4CCOCC4)C[C@H]32)n1
cytotoxicity at 70.5 h: -7.1%

CCn1ncc2c1C(COCC1CC1)CN(C(=O)c1cccs1)C2 (configuration not stated)
cytotoxicity at 70.5 h: 6.27%

Cc1oncc1C(=O)N1CCC2(CCN(Cc3ccccn3)C2=O)C1 (configuration not stated)
cytotoxicity at 70.5 h: -0.113%

CCC(C)NC(=O)N1CCCn2cnc(CO)c2C1 (configuration not stated)
cytotoxicity at 70.5 h: -7.63%

CN1C(=O)C[C@@H]2[C@@H]1CCN2S(=O)(=O)Cc1ccccc1
cytotoxicity at 70.5 h: -3.44%

CCN1Cc2c(C(=O)NCC3CC3)ncn2-c2ccccc2S1(=O)=O
cytotoxicity at 70.5 h: -9.23%

COCCN1C[C@H]2[C@@H](C1)N(Cc1ccc(C)o1)CC[C@H]2OC
cytotoxicity at 70.5 h: -5.94%

CCN1CC2(CC1=O)CN(C(C)=O)CCN(C(=O)c1ccco1)C2 (configuration not stated)
cytotoxicity at 70.5 h: -9.45%

Cc1csc(CN2CC[C@H]3C[C@H](c4nnc(C)[nH]4)O[C@@H]3C2)n1
cytotoxicity at 70.5 h: 20.1%

CCOCC1CN(Cc2ccoc2)Cc2ncn(CC3CC3)c21 (configuration not stated)
cytotoxicity at 70.5 h: 5.39%

COCCO[C@H]1CCN(C(=O)c2ccno2)[C@H]1Cc1cnn(C)c1
cytotoxicity at 70.5 h: -0.314%

CCN1CC2(CC1=O)CN(Cc1cccs1)CCN(C(=O)C(C)C)C2 (configuration not stated)
cytotoxicity at 70.5 h: 2.16%

COCCN1C[C@@H]2CN(c3ncccn3)C[C@@H]2C1=O
cytotoxicity at 70.5 h: -7.68%

CNC(=O)N1CC[C@H]2N(C)CC[C@@]2(C(=O)Nc2ccccc2)CC1
cytotoxicity at 70.5 h: -4.01%

O=C(C1CCOCC1)N1CCO[C@H]2[C@@H](OCc3ccncc3)CC[C@@H]21
cytotoxicity at 70.5 h: -4.02%

Cc1noc([C@H]2COC[C@H]3CN(C(=O)Cc4ccc(F)cc4)C[C@H]32)n1
cytotoxicity at 70.5 h: -2.96%

CCC1=N[C@@]2(CC[C@@H]3CN(C(=O)Nc4ccc(F)cc4)C[C@@H]32)C(=O)N1
cytotoxicity at 70.5 h: 0.571%

CCN1CCC2(CC1)CC(Nc1ncccn1)CO2 (configuration not stated)
cytotoxicity at 70.5 h: -1.36%

O=C(c1ccncc1F)N1CCN(CC2CC2)c2ncccc2C1
cytotoxicity at 70.5 h: 24.5%

COCCN1CCN(C(=O)c2ccncc2F)Cc2cccnc21
cytotoxicity at 70.5 h: -12.3%

CC(C)CS(=O)(=O)N1C[C@H]2C[C@H](C(=O)NCc3ccccc3)[C@@H](C1)O2
cytotoxicity at 70.5 h: -7.71%

CCN1C[C@H]2CCN(C(=O)NC3CCCC3)CC[C@H]2S1(=O)=O
cytotoxicity at 70.5 h: 12.8%

O=C(N[C@H]1CN[C@H]2CCCO[C@H]21)c1ccno1
cytotoxicity at 70.5 h: -4.14%

O=C(N[C@H]1CN[C@H]2CCCO[C@H]21)c1cscn1
cytotoxicity at 70.5 h: -4.74%

CN(C)Cc1cncc2c1CCN(Cc1cnn(C)c1)C2
cytotoxicity at 70.5 h: -0.555%

Cn1cccc1C(=O)N[C@@H]1CN(Cc2ccsc2)[C@@H]2COC[C@@H]21
cytotoxicity at 70.5 h: -10.2%

CN1CCc2ncc(CNC(=O)c3cccn3C)n2CC1
cytotoxicity at 70.5 h: -7.23%

O=C(CC1CC1)N[C@@H]1CN(c2ncccn2)C[C@@H]2CCCO[C@@H]21
cytotoxicity at 70.5 h: -7.21%

Cn1cccc1C(=O)NCc1cnc2n1CCN(CC1CC1)C2
cytotoxicity at 70.5 h: 3.59%

O=C([C@H]1C[C@H]2OCC[C@H]2N(C(=O)c2ccncc2)C1)N1CCCC1
cytotoxicity at 70.5 h: -5.12%

Cc1cc(CN2C[C@@H]3CCCO[C@@H]3[C@H](NS(C)(=O)=O)C2)no1
cytotoxicity at 70.5 h: -1.78%

O=C1[C@H]2CN(Cc3ccc(F)cc3)C[C@H]2CN1c1cncnc1
cytotoxicity at 70.5 h: 0.584%

CCOCC1CN(S(=O)(=O)N(C)C)Cc2cnn(C)c21 (configuration not stated)
cytotoxicity at 70.5 h: -6.39%

CN(C)CC1CN(C(=O)NCc2ccccc2)Cc2nccn2C1 (configuration not stated)
cytotoxicity at 70.5 h: -5.97%

O=C1COC2(CCN(Cc3cccs3)CC2)CN1c1ccccc1
cytotoxicity at 70.5 h: -4.47%

CN(C)c1nccc(N2CCO[C@H]3CN(Cc4ccsc4)C[C@H]32)n1
cytotoxicity at 70.5 h: -6%

O=C(C1CCOCC1)N1C[C@@H]2C[C@@H](c3nc(C4CC4)cs3)O[C@@H]2C1
cytotoxicity at 70.5 h: 8.69%

O=C1COC2(CCN(CC3CC3)CC2)CN1c1ccccc1
cytotoxicity at 70.5 h: -9.15%

Cc1ccc(CN2CCc3c(C(=O)N(C)C)nn(C)c3C2)s1
cytotoxicity at 70.5 h: -5.06%

CS(=O)(=O)N1CCC2(CN(C(=O)c3cccnc3)C2)C1
cytotoxicity at 70.5 h: -2.66%

c1ccc(-c2ccc3nc(C4CCN(CC5CC5)CC4)nn3c2)cc1
cytotoxicity at 70.5 h: -6.34%

O=C1C[C@H]2[C@@H](CCN2C(=O)c2ccccc2)N1CCN1CCOCC1
cytotoxicity at 70.5 h: -5.41%

COCc1nn(C(C)C)c2c1CCN(Cc1ccc(C)s1)C2
cytotoxicity at 70.5 h: -8.69%

O=C(C1CCOCC1)N1C[C@@H]2[C@@H](C1)OCC(=O)N2Cc1ccncc1
cytotoxicity at 70.5 h: -5.97%

O=C(NC[C@H]1OC[C@@H]2CCN(Cc3ccco3)C[C@@H]21)c1ccsc1
cytotoxicity at 70.5 h: -5.61%

Cc1ncnc2c1CCN(Cc1ccc3c(c1)OCO3)CC2
cytotoxicity at 70.5 h: -3.06%

COc1ccc(CN2CCOC3(CCCN(c4nnc(C)o4)C3)C2)cc1 (configuration not stated)
cytotoxicity at 70.5 h: -2.27%

CS(=O)(=O)N1CCOCC2(CCN(C(=O)c3cccnc3)CC2)C1
cytotoxicity at 70.5 h: -7.84%

CN(C)C(=O)N1C[C@@H]2CCCO[C@@H]2[C@H](N(C)Cc2ccco2)C1
cytotoxicity at 70.5 h: -11.5%

CCOCC1CN(Cc2ccoc2)Cc2nn(CC3CC3)cc21 (configuration not stated)
cytotoxicity at 70.5 h: 5.44%

CCN1CC2(CC1=O)CN(Cc1cnn(C)c1)CCN(C(C)=O)C2 (configuration not stated)
cytotoxicity at 70.5 h: -0.943%

O=C1COC2(CCN(Cc3ccc(F)cc3)CC2)CN1
cytotoxicity at 70.5 h: 3.53%

CCN1CCC(c2nc3ccc(NC(C)C)cn3n2)CC1
cytotoxicity at 70.5 h: -0.678%

CCn1nnc2c1C(COC)CN(Cc1cccs1)C2 (configuration not stated)
cytotoxicity at 70.5 h: 1.81%

CCCS(=O)(=O)N1CCC2(CC1)CN(c1ccccn1)CCO2
cytotoxicity at 70.5 h: 23.8%

O=C(C[C@@H]1COC[C@H]2CN(Cc3ccc(F)cc3)C[C@@H]12)N1CCOCC1
cytotoxicity at 70.5 h: 21.2%

COc1ccc(CN2CC[C@@H](O)[C@@H]2Cc2ccccc2)cc1
cytotoxicity at 70.5 h: 38.7%

O=C(N1CCOCC1)[C@@]12CCO[C@@H]1CCN(CC1CCCCC1)C2
cytotoxicity at 70.5 h: 27.8%

Cc1ccc(CN2CCC3(CC2)OC(C(=O)N(C)C)c2ccccc23)o1 (configuration not stated)
cytotoxicity at 70.5 h: -13.3%

O=C(c1ccco1)N1CCOCC2(CCN(C3CCOCC3)C2)C1 (configuration not stated)
cytotoxicity at 70.5 h: -8.45%

O=C(N1CCOCC1)[C@@]12CCO[C@@H]1CCN(Cc1ccccc1F)C2
cytotoxicity at 70.5 h: -9.82%

Cc1noc(C)c1CN1CCCC2(C1)CN(Cc1nccn1C)CCO2 (configuration not stated)
cytotoxicity at 70.5 h: -8.03%

c1csc(CN2CCCC3(COCCN(Cc4c[nH]nn4)C3)C2)c1 (configuration not stated)
cytotoxicity at 70.5 h: 1.75%

CN(C)CCOCC1CN(C(=O)N2CCCC2)Cc2ccnn2C1 (configuration not stated)
cytotoxicity at 70.5 h: -5.66%

CN(C)CCNC(=O)c1nc2c(o1)CN(C(=O)c1cccnc1)C2
cytotoxicity at 70.5 h: 10.9%

Cn1ccnc1CN1CCN2C[C@H](Oc3cccc(F)c3)C[C@H]2C1
cytotoxicity at 70.5 h: 11.9%

CN(C)CCN1CCOCC2(CCCN(C(=O)c3ccccn3)C2)C1 (configuration not stated)
cytotoxicity at 70.5 h: 0.371%

CN(C)CCN1CCOCC2(CCCN(C(=O)c3ccoc3)C2)C1 (configuration not stated)
cytotoxicity at 70.5 h: 1.59%

O=C(CC1CC1)N[C@@H]1CN(Cc2ccccn2)C[C@@H]2CCCO[C@@H]21
cytotoxicity at 70.5 h: -0.597%

COCc1cncc2c1CCN(Cc1cnn(C)c1)C2
cytotoxicity at 70.5 h: 10.6%

O=C(C1CC=CC1)N1CCc2c(COCc3ccncc3)cncc2C1
cytotoxicity at 70.5 h: -10.9%

Cc1ccc(N2CCCC3(COCCN(c4nccs4)C3)C2)nn1 (configuration not stated)
cytotoxicity at 70.5 h: -9.95%

Cc1ncsc1CN1C[C@H](C(=O)N2CCCO2)[C@@H]2CCO[C@@H]2C1
cytotoxicity at 70.5 h: -0.785%

Cn1ccc(C(=O)NC2CCC23CCN(Cc2cccnc2)CC3)c1 (configuration not stated)
cytotoxicity at 70.5 h: -7.38%

c1csc(CN2C[C@@H]3OCCN(CC4CCCO4)[C@@H]3C2)c1 (some centres not stated)
cytotoxicity at 70.5 h: -7.54%

Cc1cccc(Cn2c3c(ccc2=O)CCN(Cc2ccoc2)CC3)n1
cytotoxicity at 70.5 h: -9.52%

c1cncc(CO[C@H]2CC[C@H]3[C@@H]2OCCN3C2CCOCC2)c1
cytotoxicity at 70.5 h: -2.22%

Cc1csc(CN2CCC[C@]3(C[C@H](Oc4ccccn4)CO3)C2)n1
cytotoxicity at 70.5 h: 16%

Cc1nc(CN2CCOCC3(CCN(c4cccnc4)CC3)C2)cs1
cytotoxicity at 70.5 h: 2.23%

COCC1c2c(cnn2C)CCN1Cc1ccc(F)cc1 (configuration not stated)
cytotoxicity at 70.5 h: -0.871%

c1cnc(N2CCN(C3CCC[C@@H]4CN(CC5CC5)C[C@H]34)CC2)nc1 (some centres not stated)
cytotoxicity at 70.5 h: -1.3%

Cc1cccc(CN2CCN3C[C@H](Oc4cccnc4)C[C@H]3C2)n1
cytotoxicity at 70.5 h: -1.7%

Cn1ccnc1CN1CCN2C[C@H](OCc3cccnc3)C[C@H]2C1
cytotoxicity at 70.5 h: -2.68%

COCCN1C[C@@H]2[C@@H](OC)CCN(Cc3cccc(C)n3)[C@@H]2C1
cytotoxicity at 70.5 h: -8.62%
